Where “and” joins values, the source holds several entries; their conditions need not be identical. Identical values can stand only once.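 Tested at 5 concentrations; 48 h exposure; 96-well plates; endpoints linearly interpolated, else capped at highest concentration. GI50: concentration for 50% inhibition of growth. TGI is the concentration that stops growth completely.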
System: CAKI-1 renal
Assay: NCI anticancer screen, dose series, 48 h

| SMILES | GI50 | TGI |
| --- | --- | --- |
| Cc1cc(C2CCCCC2)n(O)c(=O)c1 | 1800 nM | 21.4 µM |
| CC(=O)[O][Hg][c]1c(C)c(C)c(C)c(C)c1C | 3020 nM | 7.69 µM |
| COc1cc(C(=O)O[C@H](C(N)=O)[C@]2(C)CO2)c2ccccc2c1 | 20600 nM | 39.8 µM |
| CN(C)C(=S)SN(C)C(=O)Nc1ccccc1 |  | 60.5 µM |
| COc1cc2c(/C=C3/C(=O)Nc4cccc(Cl)c43)c(Cl)n(Cc3ccccc3)c2cc1C | 2460 nM | 31.4 µM |
| Cc1[nH]c(N=Nc2ccccc2)nc1N=Nc1ccccc1 | 1040 nM | 3.48 µM |
| COc1ccc(-c2cc3c(nn2)-c2ccccc2C3=O)cc1 | > 100000 nM | > 100 µM |
| COc1ccc(S(=O)(=O)N(Cc2ccc3c(n2)C=CC(C)(C)O3)C2CCC2)cc1OC | < 10 nM | 0.145 µM |
| O=C(CCCSc1nc(-c2ccc(Cl)cc2)cc(-c2ccc(Cl)cc2)n1)NO | 334 nM | 10.7 µM |

System: HOP-92 NSCLC
Assay: NCI anticancer screen, dose series, 48 h

| SMILES | TGI | GI50 |
| --- | --- | --- |
| Cc1cc(C2CCCCC2)n(O)c(=O)c1 | 21.5 µM |  |
| CC(=O)[O][Hg][c]1c(C)c(C)c(C)c(C)c1C | 3.12 µM | 1600 nM |
| COc1cc(C(=O)O[C@H](C(N)=O)[C@]2(C)CO2)c2ccccc2c1 | 50.6 µM | 20300 nM |
| CN(C)C(=S)SN(C)C(=O)Nc1ccccc1 | 22.2 µM |  |
| COc1cc2c(/C=C3/C(=O)Nc4cccc(Cl)c43)c(Cl)n(Cc3ccccc3)c2cc1C | > 100 µM | 44900 nM |
| Cc1[nH]c(N=Nc2ccccc2)nc1N=Nc1ccccc1 | 20.3 µM | 2340 nM |
| COc1ccc(-c2cc3c(nn2)-c2ccccc2C3=O)cc1 | > 100 µM | > 100000 nM |
| COc1ccc(S(=O)(=O)N(Cc2ccc3c(n2)C=CC(C)(C)O3)C2CCC2)cc1OC | < 0.01 µM | < 10 nM |
| O=C(CCCSc1nc(-c2ccc(Cl)cc2)cc(-c2ccc(Cl)cc2)n1)NO | 11.7 µM | 2510 nM |

System: IGROV1 ovarian
Assay: NCI anticancer screen, dose series, 48 h

| SMILES | GI50 | TGI |
| --- | --- | --- |
| Cc1cc(C2CCCCC2)n(O)c(=O)c1 | 989 nM | > 100 µM |
| CC(=O)[O][Hg][c]1c(C)c(C)c(C)c(C)c1C | 604 nM | 2.2 µM |
| COc1cc(C(=O)O[C@H](C(N)=O)[C@]2(C)CO2)c2ccccc2c1 | 34600 nM | 98.4 µM |
| CN(C)C(=S)SN(C)C(=O)Nc1ccccc1 |  | > 100 µM |
| COc1cc2c(/C=C3/C(=O)Nc4cccc(Cl)c43)c(Cl)n(Cc3ccccc3)c2cc1C | 7420 nM | > 100 µM |
| Cc1[nH]c(N=Nc2ccccc2)nc1N=Nc1ccccc1 | 1600 nM | 5.15 µM |
| COc1ccc(-c2cc3c(nn2)-c2ccccc2C3=O)cc1 | > 100000 nM | > 100 µM |
| COc1ccc(S(=O)(=O)N(Cc2ccc3c(n2)C=CC(C)(C)O3)C2CCC2)cc1OC | < 10 nM | 0.262 µM |
| O=C(CCCSc1nc(-c2ccc(Cl)cc2)cc(-c2ccc(Cl)cc2)n1)NO | 1150 nM | 11.2 µM |

System: LOX IMVI melanoma
Assay: NCI anticancer screen, dose series, 48 h

| SMILES | GI50 | TGI |
| --- | --- | --- |
| Cc1cc(C2CCCCC2)n(O)c(=O)c1 | 757 nM | 80.3 µM and 80.1 µM |
| CC(=O)[O][Hg][c]1c(C)c(C)c(C)c(C)c1C | 1290 nM | 2.82 µM |
| COc1cc(C(=O)O[C@H](C(N)=O)[C@]2(C)CO2)c2ccccc2c1 | 24700 nM | 59.8 µM |
| CN(C)C(=S)SN(C)C(=O)Nc1ccccc1 |  | 44.7 µM |
| COc1cc2c(/C=C3/C(=O)Nc4cccc(Cl)c43)c(Cl)n(Cc3ccccc3)c2cc1C | 4420 nM | 23.7 µM |
| Cc1[nH]c(N=Nc2ccccc2)nc1N=Nc1ccccc1 | 2720 nM | 20.9 µM |
| COc1ccc(-c2cc3c(nn2)-c2ccccc2C3=O)cc1 | > 100000 nM | > 100 µM |
| COc1ccc(S(=O)(=O)N(Cc2ccc3c(n2)C=CC(C)(C)O3)C2CCC2)cc1OC | < 10 nM | 0.176 µM |
| O=C(CCCSc1nc(-c2ccc(Cl)cc2)cc(-c2ccc(Cl)cc2)n1)NO | 222 nM | 1.44 µM |

System: MDA-MB-435
Assay: NCI anticancer screen, dose series, 48 h

| SMILES | GI50 | TGI |
| --- | --- | --- |
| Cc1cc(C2CCCCC2)n(O)c(=O)c1 | 2270 nM | > 100 µM |
| CC(=O)[O][Hg][c]1c(C)c(C)c(C)c(C)c1C | 1500 nM | 3.09 µM |
| COc1cc(C(=O)O[C@H](C(N)=O)[C@]2(C)CO2)c2ccccc2c1 | 23700 nM | 53.2 µM |
| CN(C)C(=S)SN(C)C(=O)Nc1ccccc1 |  | > 72.5 µM |
| COc1cc2c(/C=C3/C(=O)Nc4cccc(Cl)c43)c(Cl)n(Cc3ccccc3)c2cc1C | 1110 nM | 5.82 µM |
| Cc1[nH]c(N=Nc2ccccc2)nc1N=Nc1ccccc1 | 3350 nM | 17.9 µM |
| COc1ccc(-c2cc3c(nn2)-c2ccccc2C3=O)cc1 | > 100000 nM | > 100 µM |
| COc1ccc(S(=O)(=O)N(Cc2ccc3c(n2)C=CC(C)(C)O3)C2CCC2)cc1OC | < 10 nM | 0.422 µM |
| O=C(CCCSc1nc(-c2ccc(Cl)cc2)cc(-c2ccc(Cl)cc2)n1)NO | 2810 nM | 17 µM |

Reference: PubChem BioAssay (NCI)
